Experimental data reported in paper PMC5104457, “ATP-Competitive MLKL Binders Have No Functional Impact on Necroptosis” (PLoS ONE, 2016).
pKd: −log10 of the molar value.

Tests used:
full length MLKL = target: T1, full length MLKL (Homo sapiens, UniProt Q8NB16); test: KINOMEscan ATP-competitive probe displacement (competition binding) assay, MLKL; conditions: average of duplicates
T1 construct: purchased DiscoverX (KINOMEscan service); host or cells: HEK-293
T1 sequence (Q8NB16 1-471): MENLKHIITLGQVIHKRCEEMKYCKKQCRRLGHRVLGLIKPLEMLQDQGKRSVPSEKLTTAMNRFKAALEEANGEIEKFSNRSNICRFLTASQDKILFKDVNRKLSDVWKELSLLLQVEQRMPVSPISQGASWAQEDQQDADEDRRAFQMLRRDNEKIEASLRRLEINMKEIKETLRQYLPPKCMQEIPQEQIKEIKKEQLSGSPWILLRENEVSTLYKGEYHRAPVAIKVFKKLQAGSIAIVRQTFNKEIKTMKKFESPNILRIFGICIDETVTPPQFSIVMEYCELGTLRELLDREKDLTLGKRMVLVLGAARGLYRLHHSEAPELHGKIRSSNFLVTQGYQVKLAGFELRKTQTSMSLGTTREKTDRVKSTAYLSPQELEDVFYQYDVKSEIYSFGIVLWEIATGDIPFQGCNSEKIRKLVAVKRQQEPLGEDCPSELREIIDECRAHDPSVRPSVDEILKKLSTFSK
Experimental: Compound binding constants (KDs) were determined at DiscoverX using their KINOMEscan assay platform. […] Briefly, full length MLKL was expressed in HEK-293 cells as a fusion with an NFκB DNA binding domain and subsequently tagged with a qPCR detection amplicon via interaction with NFκB. […] Twenty microliters of binding reactions were carried out in 384-well polypropylene plates for 1 hour at room temperature. Beads were subsequently washed and resuspended in elution buffer for 30 minutes at room temperature with shaking. The concentration of MLKL in the eluates was measured by qPCR and compound binding constants were calculated using a standard dose-response curve.
(§1) A similar approach was used to measure binding affinities for RIPK1 and RIPK3 kinase domains.

RIPK1 kinase domain = target: T2, RIPK1 kinase domain (Homo sapiens, UniProt Q13546); test: ATP-competitive probe displacement assay, RIPK1; assay type: binding; conditions: average of duplicates
T2 construct: purchased DiscoverX
T2 sequence (Q13546 17-289 limits assumed): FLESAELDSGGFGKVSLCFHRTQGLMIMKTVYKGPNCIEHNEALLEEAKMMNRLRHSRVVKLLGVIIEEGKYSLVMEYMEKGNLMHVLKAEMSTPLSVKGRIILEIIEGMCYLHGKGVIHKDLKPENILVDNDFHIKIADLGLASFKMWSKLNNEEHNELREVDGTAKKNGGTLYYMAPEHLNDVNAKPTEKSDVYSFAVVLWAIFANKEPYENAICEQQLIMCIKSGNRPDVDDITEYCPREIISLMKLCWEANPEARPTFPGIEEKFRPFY
Experimental: (§2) Compound binding constants (KDs) were determined at DiscoverX using their KINOMEscan assay platform. This competition binding assay was previously described in Karaman et al. (2008)[18]. Briefly, full length MLKL was expressed in HEK-293 cells as a fusion with an NFκB DNA binding domain and subsequently tagged with a qPCR detection amplicon via interaction with NFκB. […] Twenty microliters of binding reactions were carried out in 384-well polypropylene plates for 1 hour at room temperature. Beads were subsequently washed and resuspended in elution buffer for 30 minutes at room temperature with shaking. The concentration of MLKL in the eluates was measured by qPCR and compound binding constants were calculated using a standard dose-response curve.
as §1

pseudokinase His-MLKL-1 = target: T3, pseudokinase His-MLKL-1 (Homo sapiens, UniProt Q8NB16); test: Second harmonic generation (SHG) conformational assay, MLKL pseudokinase domain; conditions: 10 μM compound; MLKL construct not given
T3 construct: sub-cloning residues 191 to 471 of the pseudokinase domain of human MLKL cDNA; made in house; host or cells: Escherichia coli BL21 (DE3)
T3 sequence (Q8NB16 191-471): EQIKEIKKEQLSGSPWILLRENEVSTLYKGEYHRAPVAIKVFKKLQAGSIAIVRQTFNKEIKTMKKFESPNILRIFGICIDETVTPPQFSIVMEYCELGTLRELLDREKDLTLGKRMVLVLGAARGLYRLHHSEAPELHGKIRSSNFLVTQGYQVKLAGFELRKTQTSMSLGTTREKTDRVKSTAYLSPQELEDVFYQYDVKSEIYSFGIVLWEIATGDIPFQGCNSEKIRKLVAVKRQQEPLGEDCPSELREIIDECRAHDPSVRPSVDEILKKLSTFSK
Text: MLKL-1 was constructed by sub-cloning residues 191 to 471 of the pseudokinase domain of human MLKL cDNA into a pET15b vector with a thrombin cleavable N-terminal six histidine fusion tag (His-MLKL-1). MLKL-2 had the same protein boundaries and fusion tag system as MLKL-1 but the dual mutations E366A and K367A were introduced using site directed mutagenesis and was expressed in the same vector (His-MLKL-2). These residues were identified as having high surface entropy and were mutated to alanine to improve crystal packing.
The labeling reaction was performed according to manufacturer’s instructions. […]
Experiments were performed on a Biodesy Delta System. […] The fundamental is directed to an arrangement of prisms integrated with the custom, glass-bottomed Biodesy Delta Read Plates, where it undergoes total internal reflection (TIR) to generate the evanescent field at the glass-lipid bilayer interface. […] The fundamental light is filtered out leaving only the SH light which is detected by a photomultiplier tube and processed with custom electronics. […] Ligand injection into the read plate is accomplished with an on-board 8-channel MEMS-based electronic pipetting system, enabling high speed and accuracy. […]
In addition, all experiments included a control buffer injection that was used to determine the significant threshold for SHG intensity change and was calculated in a similar manner. […]

RIPK3 kinase domain = target: T4, RIPK3 kinase domain (Homo sapiens, UniProt Q9Y572); test: ATP-competitive probe displacement assay, RIPK3; assay type: binding; conditions: average of duplicates
T4 construct: purchased DiscoverX
T4 sequence (Q9Y572 21-287 limits assumed): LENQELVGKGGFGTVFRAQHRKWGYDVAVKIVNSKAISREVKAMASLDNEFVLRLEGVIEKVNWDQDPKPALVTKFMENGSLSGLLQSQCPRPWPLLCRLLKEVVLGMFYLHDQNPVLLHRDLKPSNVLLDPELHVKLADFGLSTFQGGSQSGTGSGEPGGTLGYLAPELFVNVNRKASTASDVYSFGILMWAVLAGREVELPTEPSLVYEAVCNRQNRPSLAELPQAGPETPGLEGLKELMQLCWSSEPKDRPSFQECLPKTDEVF
Experimental: as §2, §1

pKd (full length MLKL): 5.12 | pKd (RIPK1 kinase domain): < 4.52 | change in SHG intensity (in words) (pseudokinase His-MLKL-1): no change from baseline | pKd (RIPK3 kinase domain): < 4.52
SMILES: Nc1nccnc1C(=O)O[C@H](C(=O)Nc1ccc(F)cc1)c1ccccc1 [cpd 5]
